Experimental data as given in the supplement of paper PMC10307832.

Tests used:
Test in all cases: relative viability (nuclei count vs DMSO), 5 days (fraction); higher = more cells survive
XMD14-99 + AZD7762 = compound: CN1CCN(CC1)C2=CC(=C(C=C2)NC3=NC(=C(S3)C(=O)C4=C(C=CC=C4Cl)Cl)N)OC [XMD14-99] + NC(=O)Nc1cc(-c2cccc(F)c2)sc1C(=O)N[C@H]1CCCNC1 [AZD7762] (partner 0.2 µM)
How it was run: (§1)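 Lung cancer cell lines, seeded in 1536-well plates, were treated the following day by pin tool with a single drug or with five library-drug doses (not always all listed) in √10 steps on top of a fixed anchor-drug dose. Cells were fixed and nuclei stained in one step after 5 days, and nuclei were counted. Relative viability is the nuclei count for treated wells divided by that for vehicle wells, reported as medians of duplicate plates.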

AZD1208 + Alpelisib = compound: N[C@@H]1CCCN(c2c(/C=C3\SC(=O)NC3=O)cccc2-c2ccccc2)C1 [AZD1208] + Cc1nc(NC(=O)N2CCC[C@H]2C(N)=O)sc1-c1ccnc(C(C)(C)C(F)(F)F)c1 [Alpelisib] (partner 2 µM)
How it was run: as §1

XMD14-99 + Tozasertib = compound: CN1CCN(CC1)C2=CC(=C(C=C2)NC3=NC(=C(S3)C(=O)C4=C(C=CC=C4Cl)Cl)N)OC [XMD14-99] + Cc1cc(Nc2cc(N3CCN(C)CC3)nc(Sc3ccc(NC(=O)C4CC4)cc3)n2)n[nH]1 [Tozasertib] (partner 0.1 µM)
How it was run: as §1

XMD14-99 + OSI-027 = compound: CN1CCN(CC1)C2=CC(=C(C=C2)NC3=NC(=C(S3)C(=O)C4=C(C=CC=C4Cl)Cl)N)OC [XMD14-99] + COc1cccc2cc(-c3nc([C@H]4CC[C@H](C(=O)O)CC4)n4ncnc(N)c34)[nH]c12 [OSI-027] (partner 0.5 µM)
How it was run: as §1

Cell Line | relative viability (XMD14-99 + AZD7762; first compound 0.08 µM) | relative viability (XMD14-99 + AZD7762; first compound 0.8 µM) | relative viability (XMD14-99 + AZD7762; first compound 2.53 µM) | relative viability (XMD14-99 + AZD7762; first compound 8 µM) | relative viability (AZD1208 + Alpelisib; first compound 0.08 µM) | relative viability (AZD1208 + Alpelisib; first compound 0.253 µM) | relative viability (AZD1208 + Alpelisib; first compound 0.8 µM) | relative viability (AZD1208 + Alpelisib; first compound 2.53 µM) | relative viability (AZD1208 + Alpelisib; first compound 8 µM) | relative viability (XMD14-99 + Tozasertib; first compound 0.08 µM) | relative viability (XMD14-99 + Tozasertib; first compound 0.8 µM) | relative viability (XMD14-99 + Tozasertib; first compound 2.53 µM) | relative viability (XMD14-99 + Tozasertib; first compound 8 µM) | relative viability (XMD14-99 + OSI-027; first compound 0.08 µM) | relative viability (XMD14-99 + OSI-027; first compound 0.8 µM) | relative viability (XMD14-99 + OSI-027; first compound 2.53 µM) | relative viability (XMD14-99 + OSI-027; first compound 8 µM)
NCI-H1666 | 0.858 | 0.801 | 0.731 | 0.736 | 0.815 | 0.821 | 0.577 | 0.765 | 0.894 | 0.61 | 0.582 | 0.498 | 0.537 | 0.881 | 0.731 | 0.799 | 0.651
NCI-H1651 | 0.429 | 0.466 | 0.444 | 0.46 | 0.848 | 0.921 | 0.785 | 0.732 | 0.677 | 0.767 | 0.645 | 0.657 | 0.556 | 0.815 | 0.691 | 0.622 | 0.531
NCI-H1755 | 0.44 | 0.366 | 0.467 | 0.357 | 0.933 | 1.02 | 0.858 | 0.859 | 0.741 | 0.519 | 0.531 | 0.478 | 0.512 | 0.709 | 0.712 | 0.668 | 0.517
NCI-H727 | 0.582 | 0.598 | 0.506 | 0.578 | 0.542 | 0.543 | 0.496 | 0.497 | 0.387 | 0.661 | 0.558 | 0.532 | 0.342 | 0.617 | 0.493 | 0.584 | 0.383
HARA | 0.334 | 0.261 | 0.237 | 0.217 | 0.747 | 0.794 | 0.671 | 0.754 | 0.747 | 0.122 | 0.0974 | 0.258 | 0.0954 | 0.46 | 0.426 | 0.321 | 0.182
NCI-H647 | 0.506 | 0.472 | 0.433 | 0.335 | 1.03 | 1.28 | 1.06 | 1.06 | 1.01 | 0.203 | 0.375 | 0.218 | 0.114 | 0.621 | 0.71 | 0.746 | 0.605
NCI-H2347 | 0.814 | 0.725 | 0.673 | 0.505 | 1.01 | 0.936 | 1.07 | 0.904 | 0.96 | 0.555 | 0.641 | 0.442 | 0.405 | 0.401 | 0.349 | 0.378 | 0.276
LCLC-97TM1 | 0.346 | 0.293 | 0.303 | 0.227 | 0.267 | 0.212 |  | 0.169 | 0.199 | 0.401 | 0.238 | 0.202 | 0.211 | 0.412 | 0.452 | 0.555 | 0.442
EPLC-272H | 0.165 | 0.207 | 0.254 | 0.433 | 0.938 | 0.949 | 0.807 | 0.807 | 0.894 | 0.348 | 0.307 | 0.264 | 0.324 | 0.311 | 0.32 | 0.282 | 0.263
NCI-H1915 | 0.668 | 0.676 | 0.701 | 0.629 | 1.05 | 1.09 | 1.05 | 1.03 | 1.03 | 0.423 | 0.42 | 0.428 | 0.386 | 0.629 | 0.548 | 0.487 | 0.415
NCI-H3122 | 0.978 | 0.893 | 0.936 | 0.555 | 0.686 | 0.68 | 0.647 | 0.583 | 0.722 | 0.407 | 0.314 | 0.295 | 0.179 | 0.815 | 0.811 | 0.623 | 0.163
NCI-H441 | 0.939 | 1.2 | 1.3 | 0.793 | 0.55 | 0.787 | 0.617 | 0.466 | 0.446 | 0.693 | 0.599 | 0.554 | 0.354 | 0.61 | 0.568 | 0.665 | 0.427
NCI-H2170 | 0.787 | 0.928 | 0.875 | 0.702 | 0.747 | 0.8 | 0.707 | 0.567 | 0.52 | 0.702 | 0.667 | 0.696 | 0.575 | 0.709 | 0.772 | 0.65 | 0.621
NCI-H1395 | 0.387 | 0.462 | 0.363 | 0.38 | 0.925 | 1.07 | 1.1 | 1.24 | 0.851 | 0.689 | 0.79 | 0.537 | 0.651 | 0.687 | 0.639 | 0.654 | 0.584
NCI-H358 | 0.487 | 0.593 | 0.461 | 0.455 | 0.64 | 0.709 | 0.546 | 0.592 | 0.569 | 0.0889 | 0.102 | 0.0882 | 0.0609 | 0.702 | 0.813 | 0.707 | 0.404
PC-14 | 0.37 | 0.416 | 0.36 | 0.309 | 0.928 | 1 | 0.956 | 0.917 | 0.931 | 0.584 | 0.572 | 0.599 | 0.368 | 0.809 | 0.806 | 0.644 | 0.29
CAL-12T | 0.65 | 0.549 | 0.671 | 0.573 | 1.12 | 1.22 | 1.13 | 1.1 | 0.851 | 0.331 | 0.331 | 0.307 | 0.3 | 0.492 | 0.68 | 0.747 | 0.377
